According to article PMC11238198, “Rejuvenation of Meropenem by Conjugation with Tilapia Piscidin-4 Peptide Targeting NDM-1 Escherichia coli” (ACS Omega, 2024):
No end group written: not given here.

Key:
[1] = system: A. baumannii 2982; test: microbe, parasite or virus in culture; assay type: cell-based, Acinetobacter baumannii; conditions: Mueller Hinton broth, 50 μL of 1 × 10^6 CFU/mL + 50 μL sample, 37 °C, 16–20 h, three independent replicates, each in triplicate
Protocol: (§1) E. coli 8–8, A. baumannii 2982, and S. aureus 13–1 were procured from the Bioresource Collection and Research Center (BCRC), Taiwan. NDM-1-positive E. coli BAA 2452 was procured from ATCC. All strains were cultured in Mueller Hinton broth (MHB). The concentration of bacteria was identified by the absorbance at OD600. The colony forming units (CFU) corresponding to different OD600 values were identified by plating on the Mueller Hinton agar (MHA) plate.
(§2) Antibacterial analysis was performed according to a standard protocol.[32] Overnight cultures of test bacteria were prepared and freshly subcultured. Briefly, 50 μL of 1 × 10^6 CFU/mL bacterial cells was treated with 50 μL of peptide or conjugate at different concentrations in a 96-well plate. The plates were incubated at 37 °C for 16–20 h. The lowest concentration of peptide/conjugate showing no growth was considered the minimum inhibitory concentration (MIC). To identify the MIC (MBC), 5 μL of incubated suspensions from growth-free wells was plated onto MHA and incubated overnight at 37 °C. The lowest concentration of peptide/conjugate showing no growth on the MHA plate was considered to be the MBC. The experiments were performed in three independent replicates, each in triplicate.

[2] = system: NDM E. coli BAA 2452; test: microbe, parasite or virus in culture; assay type: cell-based; conditions: Escherichia coli, BAA2452; 5 μL from growth-free wells plated onto MHA, overnight at 37 °C; three independent replicates, each in triplicate
Protocol: as §1, §2

[3] = system: S. aureus 13–1; test: microbe, parasite or virus in culture; assay type: cell-based; conditions: Mueller Hinton broth, 50 μL of 1 × 10^6 CFU/mL + 50 μL sample, 37 °C, 16–20 h, three independent replicates, each in triplicate
Protocol: as §1, §2

[4] = system: NDM E. coli BAA 2452; test: microbe, parasite or virus in culture; assay type: cell-based, Escherichia coli; conditions: for MIC: NDM-1-positive MDR strain, Mueller Hinton broth, 37 °C, 16–20 h, three independent replicates, each in triplicate
Protocol: as §1, §2

[5] = system: E. coli 8–8; assay type: cell-based, Escherichia coli; conditions: Mueller Hinton broth, 50 μL of 1 × 10^6 CFU/mL + 50 μL sample, 37 °C, 16–20 h; three independent replicates, each in triplicate
Protocol: as §1, §2

[6] = system: RBCs; assay type: cell-based, Human
Protocol: Human RBCs were used to examine the hemolytic profiles of the peptides and conjugates. The RBCs were washed three times with PBS and centrifuged at 1000g. Then, 50 μL of a 2% RBC suspension was added to 50 μL of peptide/conjugate solution at different concentrations. The mixture was incubated at 37 °C for 1 h. The incubated mixture was centrifuged, and hemolysis was assessed by measuring the absorbance of the supernatant at 540 nm.

[7] = system: CCD966-SK cells; assay type: cell-based, human; conditions: 16 µM
Protocol: RAW 264.7 murine macrophage cells, CCD966-SK human fibroblast cells, and HaCaT human keratinocytes were procured from BCRC, Taiwan. RAW264.7 and HaCaT cells were cultivated in DMEM supplemented with 10% FBS, streptomycin (100 μg/mL), and penicillin (100 U/mL) at 37 °C and 5% CO2. CCD966-SK were cultivated in MEM with 0.1 mM nonessential amino acids with 10% FBS, streptomycin (100 μg/mL), and penicillin (100 U/mL) at 37 °C and 5% CO2. In vitro cytotoxicity of the TP4-Meropenem conjugates was evaluated with an alamarBlue assay. Briefly, 5 × 10^4 RAW264.7 cells/well or 5 × 10^3 CCD966-SK or 1 × 10^4 HaCaT cells/well were seeded in 96-well plates for 24 h and then treated with different concentrations of peptide/conjugate. Controls included 0.1% Triton-X-treated cells and cells in a culture medium. After 24 h of treatment, the cells were washed and incubated with 90 μL of DMEM and 10 μL of alamarBlue reagent for 2 h. The absorbances at 570 and 600 nm were measured using a Spectra Max i3 (Molecular Devices, CA). Cell viability was calculated using the formula as described in the protocol. The LDH assay was carried out using the cytotoxicity detection kit PLUS according to a previously described protocol.[33]

## C[C@@H](O)[C@H]1C(=O)N2C(C(=O)O)=C(S[C@@H]3CN[C@H](C(=O)N(C)C)C3)[C@H](C)[C@H]12 [Meropenem]
[1]; Acinetobacter baumannii, 2982, read-out: minimum inhibitory concentration (MIC) A. baumannii 2982
  MIC: > 32 µM
[2]
  MBC: > 64 µM
[3]; Staphylococcus aureus, read-out: minimum inhibitory concentration (MIC) S. aureus 13–1
  MIC: 0.25 µM
[4]; Escherichia coli, BAA2452
  MIC: > 64 µM
[4]
  MIC: >64 µM

## D-Tilapia piscidin 4 [D-TP4]
[5]
  minimum inhibitory concentration (MIC) E. coli 8–8: 2 to 4 µM
[1]
  minimum inhibitory concentration (MIC) A. baumannii 2982: 2 to 4 µM
[3]
  minimum inhibitory concentration (MIC) S. aureus 13–1: 2 to 4 µM

## FIHHIIGGLFSAGKAIHRLIRRRRR [L-TP4, Tilapia piscidin-4] [listing 1 of 2 here]
[4]; BAA 2452
  MIC NDM E. coli BAA 2452: 4 to 8 µM

## FIHHIIGGLFSAGKAIHRLIRRRRR [L-TP4, Tilapia piscidin-4] [listing 2 of 2 here]
[6]; 4 µM
  hemolysis (% of the total cells) at 4 μM: 44.4 ± 4.3%
[6]; 8 µM
  hemolysis (% of the total cells) at 8 μM: 84.1 ± 6.2%

## FIHHIIGGLFSAGKAIHRLIRRRRR [TP4, Tilapia piscidin-4]
[7]
  cell viability, CCD966-SK: 23.9 ± 1.2%
